Like-named read-outs stand apart in the source and are kept apart here.
Test system: 280 human cancer cell lines
Test: OncoPanel cell proliferation assay (10-day)
Format: cell-based
Settings: Homo sapiens; for IC50: read-out: Cell Count IC50; for EC50: read-out: Cell Count EC50; for GI50: read-out: Cell Count GI50
[1] = SJRH30, SJRH30, Soft Tissue - Sarcoma
[2] = SJSA-1, SJSA1, Soft Tissue - Osteosarcoma
[3] = SK-LMS-1, SK-LMS-1, Soft Tissue - Sarcoma
[4] = SK-MEL3, SK-MEL-3, Skin (Melanoma)
[5] = SK-MEL-1, SK-MEL-1, Skin (Melanoma)
[6] = SK-MEL-28, SK-MEL-28, Skin (Melanoma)
[7] = SK-OV-3, SKOV3, Female GU - Ovary
[8] = SK-UT-1, SK-UT-1, Soft Tissue - Sarcoma
[9] = SW579, SW579, Endocrine - Thyroid
[10] = SW684, SW684, Soft Tissue - Sarcoma

`CC(C)=CCC[C@@H]1C(O)Oc2c(C)cc(O)c3c2[C@H]1CC[C@H]3C` (some centres unmarked) [Compound 2, 5,18-epoxyserrulat-14-en-8,18-diol] gave an IC50 (SCaBER, Bladder) of 11.5 µM, an EC50 (SH-4, Skin (Melanoma)) of 9.6 µM and a GI50 (SH-4, Skin (Melanoma)) of 11.8 µM. It also gave an IC50 (SH-4, Skin (Melanoma)) of 11.9 µM, an EC50 (SHP77, SHP-77, Lung - SCLC) of 8.01 µM and a GI50 (SHP77, SHP-77, Lung - SCLC) of 7.9 µM. For the same compound, the IC50 (SHP77, SHP-77, Lung - SCLC) was 8.01 µM, the EC50 [1] was 5.09 µM and the GI50 [1] was 5.07 µM. It also gave an IC50 [1] of 5.1 µM, an EC50 [2] of 7.11 µM and a GI50 [2] of 7.02 µM. It also gave an IC50 [2] of 7.11 µM, an EC50 (SK-BR-3, SK-BR-3, Breast) of 12.2 µM and a GI50 (SK-BR-3, SK-BR-3, Breast) of 11.9 µM. It also gave an IC50 (SK-BR-3, SK-BR-3, Breast) of 12.2 µM, an EC50 [3] of 6.79 µM and a GI50 [3] of 11.2 µM. It also gave an IC50 [3] of 11.3 µM, an EC50 [4] of 22 µM and a GI50 [4] of 20.8 µM. The EC50 [5] was 15.7 µM, the GI50 [5] was 14.7 µM and the IC50 [5] was 15.7 µM. For the same compound, the EC50 [6] was 9.46 µM, the GI50 [6] was 9.85 µM and the IC50 [6] was 9.89 µM. It also gave an EC50 (SK-MES-1, SKMES1, Lung - NSCLC) of 7.8 µM, a GI50 (SK-MES-1, SKMES1, Lung - NSCLC) of 7.67 µM and an IC50 (SK-MES-1, SKMES1, Lung - NSCLC) of 7.8 µM. The EC50 (SK-N-AS, CNS - Neuroblastoma) was 6.23 µM, the GI50 (SK-N-AS, CNS - Neuroblastoma) was 7.7 µM and the IC50 (SK-N-AS, CNS - Neuroblastoma) was 7.92 µM. The EC50 (SK-N-DZ, CNS - Neuroblastoma) was > 30 µM, the GI50 (SK-N-DZ, CNS - Neuroblastoma) was > 30 µM and the IC50 (SK-N-DZ, CNS - Neuroblastoma) was > 30 µM. The EC50 (SK-N-FI, CNS - Neuroblastoma) was > 30 µM, the GI50 (SK-N-FI, CNS - Neuroblastoma) was > 30 µM and the IC50 (SK-N-FI, CNS - Neuroblastoma) was > 30 µM. The EC50 [7] was 15.4 µM, the GI50 [7] was 15.2 µM and the IC50 [7] was 15.4 µM. For the same compound, the EC50 (SK-PN-DW, Stomach) was 10.8 µM, the GI50 (SK-PN-DW, Stomach) was 10.9 µM and the IC50 (SK-PN-DW, Stomach) was 10.9 µM. The EC50 [8] was 11.7 µM, the GI50 [8] was 11.6 µM and the IC50 [8] was 11.7 µM. The EC50 (SKO-007, SKO-007, Myeloma) was 1.59 µM, the GI50 (SKO-007, SKO-007, Myeloma) was 1.42 µM and the IC50 (SKO-007, SKO-007, Myeloma) was 1.59 µM. The EC50 (SNB-19, SNB-19, CNS - Glioma) was 17.3 µM, the GI50 (SNB-19, SNB-19, CNS - Glioma) was 16.8 µM and the IC50 (SNB-19, SNB-19, CNS - Glioma) was 17.3 µM. The EC50 (SNU1, SNU-1, Stomach) was 8.51 µM, the GI50 (SNU1, SNU-1, Stomach) was 9.41 µM and the IC50 (SNU1, SNU-1, Stomach) was 9.42 µM. For the same compound, the EC50 (SNU-5, SNU-5, Stomach) was > 30 µM, the GI50 (SNU-5, SNU-5, Stomach) was > 30 µM and the IC50 (SNU-5, SNU-5, Stomach) was > 30 µM. The EC50 (SNU-16, SNU-16, Stomach) was 9.96 µM, the GI50 (SNU-16, SNU-16, Stomach) was 9.91 µM and the IC50 (SNU-16, SNU-16, Stomach) was 9.96 µM. For the same compound, the EC50 (SNU-423, SNU-423, Liver) was 5.29 µM, the GI50 (SNU-423, SNU-423, Liver) was 5.26 µM and the IC50 (SNU-423, SNU-423, Liver) was 5.31 µM. The EC50 (SR, Lymphoma) was 10.7 µM, the GI50 (SR, Lymphoma) was 10.7 µM and the IC50 (SR, Lymphoma) was 10.7 µM. For the same compound, the EC50 (ST486, ST486, Lymphoma) was 3.87 µM, the GI50 (ST486, ST486, Lymphoma) was 3.86 µM and the IC50 (ST486, ST486, Lymphoma) was 3.87 µM. It also gave an EC50 (SU-DHL10, SU-DHL-10, Lymphoma) of 9.92 µM, a GI50 (SU-DHL10, SU-DHL-10, Lymphoma) of 9.9 µM and an IC50 (SU-DHL10, SU-DHL-10, Lymphoma) of 9.92 µM. The EC50 (SU-DHL-4, SU-DHL-4, Lymphoma) was 4.2 µM, the GI50 (SU-DHL-4, SU-DHL-4, Lymphoma) was 4.2 µM and the IC50 (SU-DHL-4, SU-DHL-4, Lymphoma) was 4.2 µM. The EC50 (SU-DHL-5, SU-DHL-5, Lymphoma) was 4.28 µM, the GI50 (SU-DHL-5, SU-DHL-5, Lymphoma) was 4.27 µM and the IC50 (SU-DHL-5, SU-DHL-5, Lymphoma) was 4.28 µM. The EC50 (SU-DHL-8, SU-DHL-8, Lymphoma) was 7.4 µM, the GI50 (SU-DHL-8, SU-DHL-8, Lymphoma) was 7.4 µM and the IC50 (SU-DHL-8, SU-DHL-8, Lymphoma) was 7.4 µM. The EC50 (SU.86.86, SU.86.86, Pancreas) was 13.1 µM, the GI50 (SU.86.86, SU.86.86, Pancreas) was > 30 µM and the IC50 (SU.86.86, SU.86.86, Pancreas) was > 30 µM. For the same compound, the EC50 (SUP-T1, SUP-T1, Lymphoma) was 12.1 µM, the GI50 (SUP-T1, SUP-T1, Lymphoma) was 12 µM and the IC50 (SUP-T1, SUP-T1, Lymphoma) was 12.1 µM. For the same compound, the EC50 (SW48, SW48, Colon) was 8.73 µM, the GI50 (SW48, SW48, Colon) was 8.65 µM and the IC50 (SW48, SW48, Colon) was 8.73 µM. It also gave an EC50 [9] of 12.3 µM, a GI50 [9] of 12.2 µM and an IC50 [9] of 12.3 µM. The EC50 [10] was > 30 µM, the GI50 [10] was > 30 µM and the IC50 [10] was > 30 µM. The EC50 (SW837, SW837, Colon) was > 30 µM and the GI50 (SW837, SW837, Colon) was > 30 µM.

From US11331299B2, “Medicinal use of serrulatane diterpenes” (The University of Sydney, priority 2016, dated 2022)
